Data on 15 compounds can be found in patent US9708266B2, “Cyclohexyl pyridine derivative” (priority 2014, dated 2017).

Chain of NK1 receptor (Q5DUB1 whole entry): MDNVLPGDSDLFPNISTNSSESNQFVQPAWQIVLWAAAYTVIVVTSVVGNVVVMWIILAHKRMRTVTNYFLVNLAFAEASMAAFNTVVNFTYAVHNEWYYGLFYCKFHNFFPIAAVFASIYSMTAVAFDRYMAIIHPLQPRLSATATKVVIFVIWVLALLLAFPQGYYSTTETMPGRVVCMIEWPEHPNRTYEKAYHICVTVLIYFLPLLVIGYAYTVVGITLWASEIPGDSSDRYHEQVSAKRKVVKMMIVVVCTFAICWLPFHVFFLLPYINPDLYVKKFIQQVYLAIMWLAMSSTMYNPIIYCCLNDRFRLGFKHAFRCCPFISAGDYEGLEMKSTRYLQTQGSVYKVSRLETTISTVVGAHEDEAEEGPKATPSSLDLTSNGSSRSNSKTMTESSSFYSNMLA

This test has as its target NK1 receptor (Meriones unguiculatus (Mongolian jird) (Gerbillus unguiculatus), UniProt Q5DUB1). The test can be described thus: Effect on GR73632-induced foot-tapping. Format: in vivo. To be noted: male gerbil, 0.1 mg/kg iv, GR73632 icv after four hours. The method, then:
The test compound solution was prepared by dissolving the test compound in a vehicle (a mixture of 50% N,N-dimethylacetamide (Wako Pure Chemical Industries), 30% propylene glycol (Wako Pure Chemical Industries), 4% 2-hydroxypropyl-[…] (Wako Pure Chemical Industries) and 16% distilled water).
A male gerbil (Japan SLC) was anesthetized with isoflurane, and 0.1 mg/kg of a test compound was administered from the jugular vein. After four hours, GR73632 (5 pmol/5 μl saline), which is an NK1 receptor agonist, was administered into the cerebral ventricle at the part 1 mm lateral to and 4.5 mm below the bregma in the head, under anesthesia with isoflurane. After the administration, the gerbil was moved to an observation cage, and the foot-tapping period during 30 minutes after the recovery of the righting reflex was measured. The foot-tapping inhibition rate (%) of each test compound was calculated by the following equation. Foot-tapping inhibition rate (%)={1−(Foot-tapping period when test compound was administered)/(Foot-tapping period when solvent was administered)}×100 (2) Measurement of Drug Concentrations
Take `Cc1cc(F)ccc1-c1cc(C2CCC3(CC2)CC3C(=O)O)ncc1N(C)C(=O)C(C)(C)c1cc(C(F)(F)F)cc(C(F)(F)F)c1` (stereo not drawn) [Example 7, 6-[5-{[2-(3,5-Bistrifluoromethylphenyl)-2-methylpropionyl]methylamino}-4-(4-fluoro-2-methylphenyl)pyridin-2-yl]spiro[2.5]octane-1-carboxylic acid]: the “Inhibition (foot-tapping inhibition rate)” value (from here on “Inhibition”) turned out to be 90%. The same measure for `Cc1cc(F)ccc1-c1cc(C2CCC(C)(CC(=O)O)CC2)ncc1N(C)C(=O)C(C)(C)c1cc(C(F)(F)F)cc(C(F)(F)F)c1` (stereo not drawn) [Example 15, {4-[5-{[2-(3,5-Bistrifluoromethylphenyl)-2-methylpropionyl]methylamino}-4-(4-fluoro-2-methylphenyl)pyridin-2-yl]-1-methylcyclohexyl}acetic acid]: 100%; for `Cc1cc(F)ccc1-c1cc(C2CCC(C(C)C(=O)O)CC2)ncc1N(C)C(=O)C(C)(C)c1cc(C(F)(F)F)cc(C(F)(F)F)c1` (stereo not drawn) [Example 10, 2-{4-[5-{[2-(3,5-Bistrifluoromethylphenyl)-2-methylpropionyl]methylamino}-4-(4-fluoro-2-methylphenyl)pyridin-2-yl]cyclohexyl}propionic acid]: 97%; for `Cc1cc(F)ccc1-c1cc(C2(C)CCCC(CC(=O)O)C2)ncc1N(C)C(=O)C(C)(C)c1cc(C(F)(F)F)cc(C(F)(F)F)c1` (stereo not drawn) [Example 4, {3-[5-{[2-(3,5-Bistrifluoromethylphenyl)-2-methylpropionyl]methylamino}-4-(4-fluoro-2-methylphenyl)pyridin-2-yl]-3-methylcyclohexyl}acetic acid]: 77%. The same measure for `Cc1cc(F)ccc1-c1cc([C@H]2CC[C@H](C(C)(C)C(=O)O)CC2)ncc1N(C)C(=O)C(C)(C)c1cc(C(F)(F)F)cc(C(F)(F)F)c1` [Example 11, trans-2-{4-[5-{[2-(3,5-Bistrifluoromethylphenyl)-2-methylpropionyl]methylamino}-4-(4-fluoro-2-methylphenyl)pyridin-2-yl]cyclohexyl}-2-methylpropionic acid]: 95%; for `Cc1cc(F)ccc1-c1cc(C2CCC(C(=O)O)CC2)ncc1N(C)C(=O)C(C)(C)c1cc(C(F)(F)F)cc(C(F)(F)F)c1` (stereo not drawn) [Example 1, 4-[5-{[2-(3,5-Bistrifluoromethylphenyl)-2-methylpropionyl]methylamino}-4-(4-fluoro-2-methylphenyl)pyridin-2-yl]cyclohexanecarboxylic acid]: 98%; for `Cc1cc(F)ccc1-c1cc([C@H]2CC[C@H](CC(=O)O)CC2)nc(C#N)c1N(C)C(=O)C(C)(C)c1cc(C(F)(F)F)cc(C(F)(F)F)c1` [Example 20, trans-{4-[5-{[2-(3,5-Bistrifluoromethylphenyl)-2-methylpropionyl]methylamino}-6-cyano-4-(4-fluoro-2-methylphenyl)pyridin-2-yl]cyclohexyl}acetic acid]: 100%.

In the case of `Cc1cc(F)ccc1-c1cc(C2CCC(CC(=O)O)CC2)nc(C#N)c1N(C)C(=O)C(C)(C)c1cc(C(F)(F)F)cc(C(F)(F)F)c1` (stereo not drawn) [Example 8, {4-[5-{[2-(3,5-Bistrifluoromethylphenyl)-2-methylpropionyl]methylamino}-6-cyano-4-(4-fluoro-2-methylphenyl)pyridin-2-yl]cyclohexyl}acetic acid], the “Inhibition” value is 100%.

On to `Cc1ccccc1-c1cc(C2CCC(CC(=O)O)CC2)nc(C#N)c1N(C)C(=O)C(C)(C)c1cc(C(F)(F)F)cc(C(F)(F)F)c1` (stereo not drawn) [Example 16, [4-(5-{[2-(3,5-Bistrifluoromethylphenyl)-2-methylpropionyl]methylamino}-6-cyano-4-ortho-tolylpyridin-2-yl)cyclohexyl]acetic acid], for which the “Inhibition” value was 93%.

With `Cc1cc(F)ccc1-c1cc([C@H]2CC[C@@H](CC(=O)O)CC2)nc(C#N)c1N(C)C(=O)C(C)(C)c1cc(C(F)(F)F)cc(C(F)(F)F)c1` [Example 21, cis-{4-[5-{[2-(3,5-bistrifluoromethylphenyl)-2-methylpropionyl]methylamino}-6-cyano-4-(4-fluoro-2-methylphenyl)pyridin-2-yl]cyclohexyl}acetic acid], the “Inhibition” value worked out at 100%. Take `Cc1cc(F)ccc1-c1cc([C@H]2CC[C@@H](CC(=O)O)CC2)ncc1N(C)C(=O)C(C)(C)c1cc(C(F)(F)F)cc(C(F)(F)F)c1` [Example 14, cis-{4-[5-{[2-(3,5-bistrifluoromethylphenyl)-2-methylpropionyl]methylamino}-4-(4-fluoro-2-methylphenyl)pyridin-2-yl]cyclohexyl}acetic acid]: the “Inhibition” value was determined as 99%. For `Cc1cc(F)ccc1-c1cc(C2CCCC(CC(=O)O)C2)ncc1N(C)C(=O)C(C)(C)c1cc(C(F)(F)F)cc(C(F)(F)F)c1` (stereo not drawn) [Example 3, {3-[5-{[2-(3,5-Bistrifluoromethylphenyl)-2-methylpropionyl]methylamino}-4-(4-fluoro-2-methylphenyl)pyridin-2-yl]cyclohexyl}acetic acid], the “Inhibition” value is 100%. On to `Cc1cc(F)ccc1-c1cc(C2CCC(CC(=O)O)CC2)nc(CO)c1N(C)C(=O)C(C)(C)c1cc(C(F)(F)F)cc(C(F)(F)F)c1` (stereo not drawn) [Example 19, {4-[5-{[2-(3,5-Bistrifluoromethylphenyl)-2-methylpropionyl]methylamino}-4-(4-fluoro-2-methylphenyl)-6-hydroxymethylpyridin-2-yl]cyclohexyl}acetic acid], for which the “Inhibition” value was 95%. In the case of `Cc1ccccc1-c1cc(C2CCC(CC(=O)O)CC2)ncc1N(C)C(=O)C(C)(C)c1cc(C(F)(F)F)cc(C(F)(F)F)c1` (stereo not drawn) [Example 9, {4-[5-{[2-(3,5-Bistrifluoromethylphenyl)-2-methylpropionyl]methylamino}-4-ortho-tolylpyridin-2-yl]-cyclohexyl}acetic acid], the “Inhibition” value worked out at 75%.

On to `Cc1cc(F)ccc1-c1cc(C2CCC(CC(=O)O)CC2)nc(C)c1N(C)C(=O)C(C)(C)c1cc(C(F)(F)F)cc(C(F)(F)F)c1` (stereo not drawn) [Example 18, {4-[5-{[2-(3,5-Bistrifluoromethylphenyl)-2-methylpropionyl]methylamino}-4-(4-fluoro-2-methylphenyl)-6-methylpyridin-2-yl]cyclohexyl}acetic acid], for which the “Inhibition” value is recorded as 100%.
